For nine molecules, IC50 results are on record in US20240148821A1, “PHARMACEUTICAL USE OF CYCLIC PEPTIDE COMPOUND” (CHUGAI SEIYAKU KABUSHIKI KAISHA, priority 2021, published 2024).

Numbered stars: 1 amine (or outer) side, 2 acyl side, 3 side chain; on linkers, the order of the positions; unused ones are H or OH. Bridge positions count the residues as written; N and C are the ends. Square brackets hold non-standard residues; d marks the D form. Peptide text beside a SMILES is read from it. * marks the point of attachment. hPhe(3,5-F2-4-CF3) = N[C@@H](CCc1cc(F)c(C(F)(F)F)c(F)c1)C(=O)O; hPhe(3-Cl-4-CF3) = N[C@@H](CCc1ccc(C(F)(F)F)c(Cl)c1)C(=O)O; NMePhe(4-CF3) = CN[C@@H](Cc1ccc(C(F)(F)F)cc1)C(=O)O; hPhe(4-CF3) = N[C@@H](CCc1ccc(C(F)(F)F)cc1)C(=O)O; 3Oxa8azabicyclo(3.2.1)octane = C1CC2COCC1N2*; NMePhe(4-Cl) = CN[C@@H](Cc1ccc(Cl)cc1)C(=O)O; NMePhe(2-Cl) = CN[C@@H](Cc1ccccc1Cl)C(=O)O; hPhe(4-Cl) = N[C@@H](CCc1ccc(Cl)cc1)C(=O)O; NMedβ3hAla = C[C@H](CC(=O)[*:2])N(C)[*:1]; NMeGly(cPent) = CN[C@H](C(=O)O)C1CCCC1; NMeCha = CN[C@@H](CC1CCCCC1)C(=O)O; NMeGly(cPr) = CN[C@H](C(=O)O)C1CC1; Hyp = O=C(O)[C@@H]1C[C@@H](O)CN1; NMeAhp(2) = CCCCC[C@H](NC)C(=O)O; NMeChg = CN[C@H](C(=O)O)C1CCCCC1; NMeI = CC[C@H](C)[C@H](NC)C(=O)O; NMeE = CN[C@@H](CCC(=O)O)C(=O)O; NMeD = CN[C@@H](CC(=O)O)C(=O)O; dNMeD = CN[C@H](CC(=O)O)C(=O)O; NMeL = CN[C@@H](CC(C)C)C(=O)O; NMeV = CN[C@H](C(=O)O)C(C)C; NMeS = CN[C@@H](CO)C(=O)O; Morpholide = C1CN(*)CCO1; NMeA = CN[C@@H](C)C(=O)O; Piperidide = C1CCN(*)CC1; Pyrrolidide = C1CCN(*)C1; Ac5c = NC1(C(=O)O)CCCC1; Aze = O=C(O)[C@@H]1CCN1; NEtG = CCNCC(=O)O; X14 = c1cc(C*)cs1; βAla = NCCC(=O)O; Sar = CNCC(=O)O; Propyl = CCC*

The target of the assay is protein-protein interaction between Kras and SOS1 (biotin-tagged human Kras loaded with GDP, His-tagged human SOS1) (Homo sapiens (Human), UniProt P01116, G12D). In words: Protein-protein interaction inhibition between Kras and SOS1 (KrasG12D-SOS PPI) using AlphaScreen.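 Also: kras produced in E. coli, Ni-coupled donor beads and streptavidin acceptor beads, excitation 680 nm with emission detected at 520–620 nm via singlet oxygen transfer.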 The conditions noted are these: AlphaScreen; biotin-tagged human Kras loaded with GDP, His-tagged human SOS1; read-out: KRAS G12D-SOS PPI IC50. It is filed as biochemical.
As for `CCO[C@@H]1C[C@H]2C(=O)NC3(CCCC3)C(=O)N(C)[C@@H](C3CCCCC3)C(=O)N(C)[C@H](C)CC(=O)N(C)[C@@H](CC(C)C)C(=O)N[C@@H]([C@@H](C)CC)C(=O)N(C)[C@@H](C)C(=O)N3CC[C@H]3C(=O)N(C)[C@@H](Cc3ccc(C(F)(F)F)cc3)C(=O)N(C)CC(=O)N[C@@H](CCc3cc(F)c(C(F)(F)F)c(F)c3)C(=O)N2C1` [Compound 486] (cyclo([Ac5c][NMeChg][NMedβ3hAla][NMeL]I[NMeA][Aze][NMePhe(4-CF3)][Sar][hPhe(3,5-F2-4-CF3)][Hyp](Et))), the IC50 (as a rule, the midpoint of a concentration-inhibition curve) was 4.8 nM.
To `CC[C@H](C)[C@@H]1NC(=O)[C@H](C(C)C)N(C)C(=O)CCNC(=O)[C@H](CC(C)C)N(C)C(=O)C2(CCCC2)NC(=O)[C@H](CC(C)C)N(C)C(=O)[C@H](CCc2ccc(C(F)(F)F)cc2)NC(=O)CN(C)C(=O)[C@H](Cc2ccc(Cl)cc2)N(C)C(=O)CN(C)C(=O)CN(C)C1=O` [Compound 923] (cyclo([Ac5c][NMeL][βAla][NMeV]I[Sar][Sar][NMePhe(4-Cl)][Sar][hPhe(4-CF3)][NMeL])) belongs 230 nM; to `CC[C@H](C)[C@@H]1NC(=O)[C@H](C)N(C)C(=O)C[C@@H](C(=O)N2CCCC2)N(C)C(=O)[C@H](C(C)C)N(C)C(=O)C2(CCCC2)NC(=O)[C@H](Cc2ccccc2Cl)N(C)C(=O)[C@H](CCc2ccc(Cl)cc2)NC(=O)CN(C)C(=O)[C@H](CC2CCCCC2)N(C)C(=O)CN(C)C(=O)CN(C)C1=O` [Compound 607] ([NMeA]I[Sar][Sar][NMeCha][Sar][hPhe(4-Cl)][NMePhe(2-Cl)][Ac5c][NMeV][NMeD]-Pyrrolidide; lactam N-11), 220 nM.
`CC[C@H](C)[C@@H]1NC(=O)[C@H](CC(C)C)N(C)C(=O)C[C@H](C(=O)N2CCCC2)N(C)C(=O)[C@H](C2CCCC2)N(C)C(=O)C2(CCCC2)NC(=O)[C@@H]2CCCN2C(=O)[C@H](CCc2ccc(C(F)(F)F)c(Cl)c2)NC(=O)CN(C)C(=O)[C@H](CC2CCCCC2)N(C)C(=O)[C@@H]2CCN2C(=O)[C@H](C)N(C)C1=O` [Compound 1868] ([NMeL]I[NMeA][Aze][NMeCha][Sar][hPhe(3-Cl-4-CF3)]P[Ac5c][NMeGly(cPent)][dNMeD]-Pyrrolidide; lactam N-11): the IC50 was 100 nM.
With `CC[C@H](C)[C@@H]1NC(=O)[C@H](C2CC2)N(C)C(=O)C[C@@H](C(=O)N2CCCCC2)N(C)C(=O)[C@H](C(C)C)N(C)C(=O)C2(CCCC2)NC(=O)[C@@H]2CCCN2C(=O)[C@H](CCc2ccc(C(F)(F)F)c(Cl)c2)NC(=O)CN(C)C(=O)[C@H](CC2CCCCC2)N(C)C(=O)[C@@H]2CCN2C(=O)[C@H](C)N(C)C1=O` [Compound 100] ([NMeGly(cPr)]I[NMeA][Aze][NMeCha][Sar][hPhe(3-Cl-4-CF3)]P[Ac5c][NMeV][NMeD]-Piperidide; lactam N-11) the figure was 7.4 nM.
To `CC[C@H](C)[C@@H]1NC(=O)[C@H](CC(C)C)N(C)C(=O)C[C@@H](C(=O)N2CCOCC2)N(C)C(=O)[C@H](C2CCCC2)N(C)C(=O)C2(CCCC2)NC(=O)[C@H](CCC(=O)N2CCOCC2)N(C)C(=O)[C@H](CCc2ccc(C(F)(F)F)c(Cl)c2)NC(=O)CN(C)C(=O)[C@H](CC2CCCCC2)N(C)C(=O)[C@@H]2CCN2C(=O)[C@H](C)N(C)C1=O` [Compound 2107] ([NMeL]I[NMeA][Aze][NMeCha][Sar][hPhe(3-Cl-4-CF3)][NMeE](Morpholide)[Ac5c][NMeGly(cPent)][NMeD]-Morpholide; lactam N-11) belongs 4.8 nM.
With `CC[C@H](C)[C@@H]1NC(=O)[C@H](CC(C)C)N(C)C(=O)C[C@@H](C(=O)N2CCCC2)N(C)C(=O)[C@H]([C@@H](C)CC)N(C)C(=O)C2(CCCC2)NC(=O)[C@@H]2CCCN2C(=O)[C@H](CCc2ccc(C(F)(F)F)c(Cl)c2)NC(=O)CN(CC)C(=O)[C@H](Cc2ccc(C(F)(F)F)cc2)N(C)C(=O)[C@@H]2CCN2C(=O)[C@H](C)N(C)C1=O` [Compound 1159] ([NMeL]I[NMeA][Aze][NMePhe(4-CF3)][NEtG][hPhe(3-Cl-4-CF3)]P[Ac5c][NMeI][NMeD]-Pyrrolidide; lactam N-11) the figure was 2.8 nM; with `CCCCC[C@H]1C(=O)N[C@@H]([C@@H](C)CC)C(=O)N(C)[C@@H](C)C(=O)N2CC[C@H]2C(=O)N(C)[C@@H](COCCC)C(=O)N(C)CC(=O)N[C@@H](CCc2ccc(C(F)(F)F)c(Cl)c2)C(=O)N2CCC[C@H]2C(=O)NC2(CCCC2)C(=O)N(C)[C@@H](C2CCCC2)C(=O)N(C)[C@H](C(=O)N2C3CCC2COC3)CC(=O)N1C` [Compound 622] ([NMeAhp(2)]I[NMeA][Aze][NMeS](Propyl)[Sar][hPhe(3-Cl-4-CF3)]P[Ac5c][NMeGly(cPent)][NMeD]-{3Oxa8azabicyclo(3.2.1)octane}; lactam N-11), 1.7 nM.
Regarding `CC[C@H](C)[C@@H]1NC(=O)[C@H](CC(C)C)N(C)C(=O)C[C@@H](C(=O)N2CCCCC2)N(C)C(=O)[C@H](C2CCCCC2)N(C)C(=O)C2(CCCC2)NC(=O)[C@@H]2C[C@@H](OCc3ccsc3)CN2C(=O)[C@H](CCc2ccc(C(F)(F)F)c(Cl)c2)NC(=O)CN(C)C(=O)[C@H](CC2CCCCC2)N(C)C(=O)CN(C)C(=O)CN(C)C1=O` [Compound 2124] ([NMeL]I[Sar][Sar][NMeCha][Sar][hPhe(3-Cl-4-CF3)][Hyp](X14)[Ac5c][NMeChg][NMeD]-Piperidide; lactam N-11), the IC50 worked out at 0.91 nM.
